Test results reported in article PMC11714206, “Massively Parallel Screening of Toll/Interleukin‐1 Receptor (TIR)‐Derived Peptides Reveals Multiple Toll‐Like Receptors (TLRs)‐Targeting Immunomodulatory Peptides” (Advanced Science, 2024).
Each block holds one sequence with its values, some of them ahead of it.

Target: T1, MyD88^TIR (Homo sapiens, UniProt Q99836)
T1 construct: MyD88 (residues 148–296); 6xHis; made in house; host or cells: E. coli BL21 (DE3)
Assay: T‐Surf phage library (P8 and P3) selection against MyD88^TIR, four rounds, NGS read counts
Format: binding
Conditions: for P3_MyD88 Rank (after) / P3_MyD88 Rank (before): P3 library; for Population: 4th round of selection against MyD88 TIR, share of NGS reads; for P8_MyD88 Rank (after) / P8_MyD88 Rank (before): P8 library
Procedure, shortened: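 Read counts come from NGS of phage pools after the fourth selection round, barcoded by 20-cycle PCR and filtered for quality ≥30. Each round: phage incubated 1 h at RT on immobilised TIR protein (5 µg mL^−1, BSA-blocked), washed, HCl-eluted and amplified in E. coli TG1.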

[1] = P3_MyD88: rank by count after grouping
[2] = P3_MyD88: rank by count before grouping
[3] = selection against MyD88 TIR, rank by count after grouping
[4] = selection against MyD88 TIR, rank by count before grouping
[5] = selection against MyD88, rank after grouping
[6] = selection against MyD88, rank before grouping
[7] = P3_MyD88 pool: P3 T-Surf phage library
[8] = selection against MyD88, rank by count after grouping
[9] = selection against MyD88, rank by count before grouping
[10] = P8_MyD88: rank by count after grouping
[11] = P8_MyD88: rank by count before grouping

T1 sequence (Q99836 148-296): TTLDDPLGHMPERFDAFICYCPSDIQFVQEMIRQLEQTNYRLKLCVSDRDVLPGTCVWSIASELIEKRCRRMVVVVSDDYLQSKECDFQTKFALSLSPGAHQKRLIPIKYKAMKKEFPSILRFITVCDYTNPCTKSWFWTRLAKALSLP

Rank (after) [1]: 117 | Rank (before) [2]: 2469
Sequence: LKVDSWRQALEKAGNL

Rank (after) [1]: 114 | Rank (before) [2]: 1074
Sequence: LKVEAGVRRWKKRAN

Rank (after) [1]: 467 | Rank (before) [2]: 2470
Sequence: LKVEGWRRALEKAGNL

Rank (after) [1]: 440 | Rank (before) [2]: 2472
Sequence: LKVEIWLQTLEKAEKP

P3_MyD88 Rank (after) [3]: 203 | P3_MyD88 Rank (before) [4]: 2526
Sequence: LKVENWRQALEQAGKL

Rank (after) [1]: 176 | Rank (before) [2]: 2525
Sequence: LKVENWRQAMEKAGKL

P3_MyD88 Rank (after) [3]: 217 | P3_MyD88 Rank (before) [4]: 2522
Sequence: LKVERWRQSLEKAGKL

Rank (after) [1]: 181 | Rank (before) [2]: 2473
Sequence: LKVESCRQALEKTGKL

Rank (after) [1]: 400 | Rank (before) [2]: 2518
Sequence: LKVESWHQAREKAGKL

P3_MyD88 Rank (after) [5]: 489 | P3_MyD88 Rank (before) [6]: 2475
Sequence: LKVESWRDALTAAANLSGW

P3_MyD88 Rank (after) [3]: 197 | P3_MyD88 Rank (before) [4]: 2486
Sequence: LKVESWRQALAKAGRL

P3_MyD88 Rank (after) [3]: 261 | P3_MyD88 Rank (before) [4]: 1077
Sequence: LKVESWRQALDELVL

Population [7]: 0.00408%
Sequence: LKVESWRQALEKADKL

P8_MyD88 Rank (after) [3]: 211 | P8_MyD88 Rank (before) [4]: 326
Sequence: LKVESWRQALEKAGKL

P3_MyD88 Rank (after) [8]: 707 | P3_MyD88 Rank (before) [9]: 2496
Sequence: LKVESWRQALEKAGKLRYAM

Rank (after) [1]: 126 | Rank (before) [2]: 1081
Sequence: LKVESWRQALEKAGN

Population [7]: 0.00349%
Sequence: LKVESWRQALGKAGKL

Population [7]: 0.00378%
Sequence: LKVESWRQALKERLP

Population [7]: 0.00349%
Sequence: LKVESWRQAQEKAGKL

Rank (after) [1]: 477 | Rank (before) [2]: 2457
Sequence: LKWEGPYFWRKMRYAL

P8_MyD88 Rank (after) [3]: 191 | P8_MyD88 Rank (before) [4]: 250
Sequence: LKWGDERFWERLVYVM

P3_MyD88 Rank (after) [5]: 500 | P3_MyD88 Rank (before) [6]: 2445
Sequence: LKWGDPAYRLALHYRDFN

Population [7]: 0.00437%
Sequence: LKWGDPWFWDRLRFA

Rank (after) [1]: 403 | Rank (before) [2]: 2415
Sequence: LKWGDPYFCSKLRYPM

P3_MyD88 Rank (after) [3]: 247 | P3_MyD88 Rank (before) [4]: 2423
Sequence: LKWGDPYFWSKLLYSM

P3_MyD88 Rank (after) [8]: 726 | P3_MyD88 Rank (before) [9]: 2442
Sequence: LKWGDPYLCSKLRYAM

Rank (after) [1]: 127 | Rank (before) [2]: 2450
Sequence: LKWGEPYCWSKLRYAM

Rank (after) [1]: 476 | Rank (before) [2]: 2449
Sequence: LKWGEPYFCSKLRYAM

Rank (after) [1]: 445 | Rank (before) [2]: 2411
Sequence: LKWGGSCLSIKLAYAM

P3_MyD88 Rank (after) [3]: 222 | P3_MyD88 Rank (before) [4]: 2409
Sequence: LKWGSVFLEQTALCD

P3_MyD88 Rank (after) [5]: 523 | P3_MyD88 Rank (before) [6]: 2262
Sequence: LLAHEISKNMKIFATI

Rank (after) [1]: 131 | Rank (before) [2]: 2401
Sequence: LNVEGWRQALEKAGKL

P3_MyD88 Rank (after) [3]: 230 | P3_MyD88 Rank (before) [4]: 2403
Sequence: LNVESWRKALEKAGKL

Rank (after) [1]: 187 | Rank (before) [2]: 2402
Sequence: LNVESWRQALERAGKL

Population [7]: 0.00291%
Sequence: LNWGDPYFWSKLRYAM

P3_MyD88 Rank (after) [8]: 733 | P3_MyD88 Rank (before) [9]: 2336
Sequence: LQNQWELALTKKTKLV

Rank (after) [1]: 417 | Rank (before) [2]: 2361
Sequence: LQNQWKLALNKVANLP

P3_MyD88 Rank (after) (4R selection against MyD88, rank after grouping): 585 | P3_MyD88 Rank (before) (4R selection against MyD88, rank before grouping): 2346
Sequence: LQNQWKLALTNSGFHTFRDND

P8_MyD88 Rank (after) [3]: 237 | P8_MyD88 Rank (before) [4]: 416
Sequence: LRYDDPWFWEKLVFAM

P3_MyD88 Rank (after) [3]: 202 | P3_MyD88 Rank (before) [4]: 2375
Sequence: LSEESWRQALEKAGKL

Rank (after) [1]: 441 | Rank (before) [2]: 2377
Sequence: LSRVPGVHDFRGLVDI

P3_MyD88 Rank (after) [5]: 529 | P3_MyD88 Rank (before) [6]: 2378
Sequence: LSRVPSGHVIPGFVAI

Rank (after) [1]: 111 | Rank (before) [2]: 682
Sequence: LSRVPSVHDFRGFATI

Rank (after) [1]: 416 | Rank (before) [2]: 2389
Sequence: LSRVPSVHDFRGLMSI

P3_MyD88 Rank (after) [5]: 573 | P3_MyD88 Rank (before) [6]: 2392
Sequence: LSRVPSVHEFRGFVGV

P3_MyD88 Rank (after) [5]: 564 | P3_MyD88 Rank (before) [6]: 2395
Sequence: LSRVTSVHDARGLGGI

Rank (after) [10]: 104 | Rank (before) [11]: 110 | Population (P8_MyD88 pool: P8 T-Surf phage library): 0.02%
Sequence: LTDVANILGYHWIDWE

Rank (after) [10]: 170 | Rank (before) [11]: 200
Sequence: LTEEIVNHILKRLAEL

Population [7]: 0.00291%
Sequence: LVAHEISKKKKIFATI

P3_MyD88 Rank (after) [8]: 709 | P3_MyD88 Rank (before) [9]: 2288
Sequence: LVAHEISKKLKIFATM

P3_MyD88 Rank (after) [5]: 518 | P3_MyD88 Rank (before) [6]: 2289
Sequence: LVAHEISKKLKNFPTI
